Source: patent publication US7939341B2, “Membrane arrays and methods of manufacture” (Corning Incorporated, priority 2004, dated 2011)

Target: motilin receptor (Motilin) (Homo sapiens, UniProt O43193)
Test: GPCR array functional assay (Eu-GTP binding) on GAPS coated porous slide, Motilin receptor
Type: biochemical
Conditions: agonist at 1 μM, 10 nM Eu-GTP, 3 μM GDP, 1 hour incubation, time-resolved fluorescence
Procedure: 2) Assays performing—the printed GPCR arrays are then incubated with assay buffers containing GTP analogue probes in the presence or absence of receptor agonist for certain time (e.g., 45 minutes), and at the end of incubation period the assay solutions are removed, the slides are rinsed with GTP wash buffer and dried with nitrogen;
3) Imaging—when Eu-GTP is used as a probe, the slides are then directly scanned using a time-resolved fluorescence imaging system; and, if biotin-GTPγS is used as a probe, an extra incubation step is often performed before imaging. For example, the array is then further incubated with Gold particles labeled streptavadin in order to detect bounded biotin-GTPγS, resonance light scattering imaging system is then used.
The EuGTP assay buffer contained 10 nM Eu-GTP, 50 mM HEPES buffer, pH 7.4, 3 μM GDP, 10 mM MgCl2, 100 mM NaCl, and 0.1% protein blocker. At the end of the incubation, the assay buffers were removed. Afterwards, slides were washed, dried and imaged with in-house developed time-resolved fluorescence imaging system.

Chain of motilin receptor (Motilin) (O43193 whole entry, species assumed): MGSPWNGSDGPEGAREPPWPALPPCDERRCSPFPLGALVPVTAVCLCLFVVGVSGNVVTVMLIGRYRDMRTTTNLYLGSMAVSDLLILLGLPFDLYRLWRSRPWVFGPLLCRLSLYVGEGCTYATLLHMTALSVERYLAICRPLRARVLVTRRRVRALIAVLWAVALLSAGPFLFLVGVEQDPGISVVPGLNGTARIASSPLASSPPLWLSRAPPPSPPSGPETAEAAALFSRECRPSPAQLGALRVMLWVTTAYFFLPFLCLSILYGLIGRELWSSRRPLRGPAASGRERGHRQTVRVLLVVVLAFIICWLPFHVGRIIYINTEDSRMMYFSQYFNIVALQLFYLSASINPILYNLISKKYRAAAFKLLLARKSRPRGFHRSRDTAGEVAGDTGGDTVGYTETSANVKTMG

CC[C@H](C)[C@H](NC(=O)[C@@H]1CCCN1C(=O)[C@@H](NC(=O)[C@@H](N)Cc1ccccc1)C(C)C)C(=O)N[C@@H](Cc1ccccc1)C(=O)N[C@H](C(=O)N[C@@H](Cc1ccc(O)cc1)C(=O)NCC(=O)N[C@@H](CCC(=O)O)C(=O)N[C@@H](CC(C)C)C(=O)N[C@@H](CCC(N)=O)C(=O)N[C@@H](CCCNC(=N)N)C(=O)N[C@@H](CCSC)C(=O)N[C@@H](CCC(N)=O)C(=O)N[C@@H](CCC(=O)O)C(=O)N[C@@H](CCCCN)C(=O)N[C@@H](CCC(=O)O)C(=O)N[C@@H](CCCNC(=N)N)C(=O)N[C@@H](CC(N)=O)C(=O)N[C@@H](CCCCN)C(=O)NCC(=O)N[C@@H](CCC(N)=O)C(=O)O)[C@@H](C)O [motilin]
binding of EuGTP to the GPCR microspots (receptor activation by agonist): increase the binding of EuGTP
